Assay [1] deals with late watergrass. Briefly: Test Example 1: herbicidal activity, application before weed generation under submerged conditions (Table 16, symbol A). Type of assay: in vivo, late watergrass (Echinochloa oryzicola). The note with it: 320 g/ha applied herbicide. Put shortly:
(§1)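 Submerged Wagner pots (alluvial soil, 4 cm water) sown with weed seeds and planted with 2.5-leaf rice seedlings; emulsifiable concentrate diluted in water applied to water surface on sowing day. Held in greenhouse at 25-30 °C; injury scored 0-5 by herbicidal rate after three weeks.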

The subject of assay [2] is Japanese bulrush. Briefly: Test Example 1: herbicidal activity, application before weed generation under submerged conditions (Table 16, symbol B). Format: in vivo, Japanese bulrush (Schoenoplectus juncoides). The conditions noted are these: 320 g/ha applied herbicide. The gist of the method: as §1
The test system of assay [3] is oval-leafed pondweed. Briefly: Test Example 1: herbicidal activity, application before weed generation under submerged conditions (Table 16, symbol C). Format: in vivo, oval-leafed pondweed (Monochoria vaginalis). The note with it: 320 g/ha applied herbicide. The gist of the method:
as §1

The test system of assay [4] is late watergrass. The assay can be described thus: Test Example 2: herbicidal activity, application during weed generation under submerged conditions (Table 17, symbol A). Format: in vivo, late watergrass (Echinochloa oryzicola). The conditions noted are these: AAH 320 g/ha; application during weed generation, submerged conditions. The gist of the method: (§2)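 3-wk visual-criteria score after one water-surface dose. Emulsion formulation, water-diluted to set rate; applied at 1–2 leaf stage; alluvial soil, 4 cm standing water; seeds co-sown; greenhouse 25–30° C.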

Assay [5] deals with Japanese bulrush. Briefly: Test Example 2: herbicidal activity, application during weed generation under submerged conditions (Table 17, symbol B). The note with it: AAH 320 g/ha; application during weed generation, submerged conditions. Format: in vivo, Japanese bulrush (Schoenoplectus juncoides). Put shortly: as §2
Assay [6] has as its system oval-leafed pondweed. The assay can be described thus: Test Example 2: herbicidal activity, application during weed generation under submerged conditions (Table 17, symbol C). The conditions noted are these: AAH 320 g/ha; application during weed generation, submerged conditions. Format: in vivo, oval-leafed pondweed (Monochoria vaginalis). Put shortly: as §2
Assay [7] deals with barnyard grass. The assay can be described thus: Test Example 3: herbicidal effect by foliage application, Wagner pot (Table 18, symbol H). Type of assay: in vivo, barnyard grass (Echinochloa crus-galli). The note with it: amount of applied herbicide 320 g/ha. The gist of the method:
(§3)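 Plants were sown in alluvial soil held under 0.1–0.5 cm standing water and grown 14 days in a greenhouse at 25–30 °C. An emulsifiable formulation, water-diluted to the set dose, was then sprayed onto the foliage, and effects were scored three weeks later using previously defined criteria.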

The next assay has as its system Chinese sprangletop. Briefly: Test Example 3: herbicidal effect by foliage application, Wagner pot (Table 18, symbol D). Format: in vivo, chinese sprangletop (Leptochloa chinensis). The note with it: amount of applied herbicide 320 g/ha. Put shortly: as §3
The subject of another assay is rice flat sedge. Briefly: Test Example 3: herbicidal effect by foliage application, Wagner pot (Table 18, symbol E). Type of assay: in vivo, rice flat sedge (Cyperus iria). The conditions noted are these: amount of applied herbicide 320 g/ha. The gist of the method:
as §3

Another assay concerns southern crabgrass. Briefly: Test Example 4: herbicidal effect by soil treatment (Table 19, symbol F). Format: in vivo, southern crabgrass (Digitaria ciliaris). The note with it: amount of applied herbicide 320 g/ha. The gist of the method: (§4)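 In this soil treatment, the formulated compound reached the seeds only through the soil: seeds were buried about 1.5 cm deep in sterilized diluvial soil, then the diluted emulsion was sprayed over the surface. After three weeks at 25° C. to 30° C. in a greenhouse, effects were graded on criteria from an earlier test.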

The subject of a further assay is green foxtail. Briefly: Test Example 4: herbicidal effect by soil treatment (Table 19, symbol G). Format: in vivo, green foxtail (Setaria viridis). The conditions noted are these: amount of applied herbicide 320 g/ha. The gist of the method:
as §4

Assay [8] has as its system barnyard grass. The assay can be described thus: Test Example 4: herbicidal effect by soil treatment (Table 19, symbol H). Format: in vivo, barnyard grass (Echinochloa crus-galli). The note with it: amount of applied herbicide 320 g/ha. Put shortly:
as §4

For a further assay, the system named is wild oat. Briefly: Test Example 4: herbicidal effect by soil treatment (Table 19, symbol I). Type of assay: in vivo, wild oat (Avena fatua). The conditions noted are these: amount of applied herbicide 320 g/ha. Put shortly:
as §4

In another assay the test system is blackgrass. Briefly: Test Example 4: herbicidal effect by soil treatment (Table 19, symbol J). Type of assay: in vivo, blackgrass (Alopecurus myosuroides). The note with it: amount of applied herbicide 320 g/ha. The gist of the method:
as §4

For the next assay, the system named is Italian ryegrass. The assay can be described thus: Test Example 4: herbicidal effect by soil treatment (Table 19, symbol K). Type of assay: in vivo, Italian ryegrass (Lolium multiflorum). The note with it: amount of applied herbicide 320 g/ha. Put shortly: as §4
A further assay deals with windgrass. Briefly: Test Example 4: herbicidal effect by soil treatment (Table 19, symbol L). Type of assay: in vivo, windgrass (Apera spica-venti). The note with it: amount of applied herbicide 320 g/ha. Put shortly: as §4
Another assay has as its system velvetleaf. Briefly: Test Example 4: herbicidal effect by soil treatment (Table 19, symbol M). Format: in vivo, velvetleaf (Abutilon theophrasti). The conditions noted are these: amount of applied herbicide 320 g/ha. Put shortly:
as §4

In another assay the test system is redroot pigweed. The assay can be described thus: Test Example 4: herbicidal effect by soil treatment (Table 19, symbol N). Type of assay: in vivo, redroot pigweed (Amaranthus retroflexus). The note with it: amount of applied herbicide 320 g/ha. Put shortly:
as §4

The next assay has as its system lambsquarters. Briefly: Test Example 4: herbicidal effect by soil treatment (Table 19, symbol O). Type of assay: in vivo, lambsquarters (Chenopodium album). The note with it: amount of applied herbicide 320 g/ha. Put shortly:
as §4

Another assay relates to chickweed. Briefly: Test Example 4: herbicidal effect by soil treatment (Table 19, symbol P). Format: in vivo, common chickweed (Stellaria media). The conditions noted are these: amount of applied herbicide 320 g/ha. The gist of the method:
as §4

The subject of another assay is persian speedwell. Briefly: Test Example 4: herbicidal effect by soil treatment (Table 19, symbol R). Format: in vivo, Persian speedwell (Veronica persica). The note with it: amount of applied herbicide 320 g/ha. The gist of the method: as §4

Consider `CCCC(=O)Oc1c(C)nn(C)c(=O)c1-c1c(-c2ccc(Cl)c(F)c2)sc2ccc(F)cc12` [2-351], for which the “Herbicidal effect on A: late watergrass (grade 0-5)” value in the assay on late watergrass [1] is 5 (Herbicidal rate of 90% or more (almost completely withered)). In the assay on Japanese bulrush [2], the “Herbicidal effect on B: Japanese bulrush (grade 0-5)” value was 3 (Herbicidal rate of 40% or more and less than 70%). For the same compound, in the assay on oval-leafed pondweed [3], the “Herbicidal effect on C: oval-leafed pondweed (grade 0-5)” value was 3 (Herbicidal rate of 40% or more and less than 70%). Further, the “herbicidal effect rating, A: late watergrass” value in the assay with late watergrass [4] is 3 (Herbicidal rate of 40% or more and less than 70%). For the same compound, the “herbicidal effect rating, B: Japanese bulrush” value in the assay on Japanese bulrush [5] is 3 (Herbicidal rate of 40% or more and less than 70%). In addition, the “herbicidal effect rating, C: oval-leafed pondweed” value in the assay on oval-leafed pondweed [6] is 4 (Herbicidal rate of 70% or more and less than 90%). Moreover, the results for the “herbicidal effect on H: barnyard grass” value in the assay on barnyard grass [7] and in the assay with barnyard grass [8] were 5 (Herbicidal rate of 90% or more (almost completely withered)) and 0 (Herbicidal rate of 5% or less (almost no effect)), respectively. The “herbicidal effect on D: Chinese sprangletop” value in the assay on Chinese sprangletop is 5 (Herbicidal rate of 90% or more (almost completely withered)). Moreover, the “herbicidal effect on E: rice flat sedge” value with rice flat sedge is 4 (Herbicidal rate of 70% or more and less than 90%). For the same compound, the “herbicidal effect on F: southern crabgrass” value in the assay on southern crabgrass is 0 (Herbicidal rate of 5% or less (almost no effect)). Also, the “herbicidal effect on G: green foxtail” value in the assay on green foxtail is given as 0 (Herbicidal rate of 5% or less (almost no effect)). In addition, the “herbicidal effect on I: wild oat” value with wild oat was 0 (Herbicidal rate of 5% or less (almost no effect)). Moreover, in the assay on blackgrass, the “herbicidal effect on J: blackgrass” value was 0 (Herbicidal rate of 5% or less (almost no effect)). The “herbicidal effect on K: Italian ryegrass” value with Italian ryegrass was 0 (Herbicidal rate of 5% or less (almost no effect)). The “herbicidal effect on L: windgrass” value with windgrass is recorded as 0 (Herbicidal rate of 5% or less (almost no effect)). The “herbicidal effect on M: velvetleaf” value with velvetleaf is recorded as 0 (Herbicidal rate of 5% or less (almost no effect)). Further, in the assay with redroot pigweed, the “herbicidal effect on N: redroot pigweed” value was 3 (Herbicidal rate of 40% or more and less than 70%). Also, in the assay on lambsquarters, the “herbicidal effect on O: lambsquarters” value is 3 (Herbicidal rate of 40% or more and less than 70%). The “herbicidal effect on P: chickweed” value in the assay on chickweed is 1 (Herbicidal rate of 5% or more and less than 20%). In addition, the “herbicidal effect on R: persian speedwell” value in the assay on persian speedwell is 3 (Herbicidal rate of 40% or more and less than 70%).
In the case of `CCCC(=O)Oc1c(C)nn(C)c(=O)c1-c1c(-c2ccc(F)c(Cl)c2)sc2ccc(F)cc12` [2-353], the “Herbicidal effect on A: late watergrass (grade 0-5)” value in the assay with late watergrass [1] was 2 (Herbicidal rate of 20% or more and less than 40%). In addition, in the assay on Japanese bulrush [2], the “Herbicidal effect on B: Japanese bulrush (grade 0-5)” value is 0 (Herbicidal rate of 5% or less (almost no effect)). The “Herbicidal effect on C: oval-leafed pondweed (grade 0-5)” value with oval-leafed pondweed [3] is given as 0 (Herbicidal rate of 5% or less (almost no effect)). In addition, in the assay with late watergrass [4], the “herbicidal effect rating, A: late watergrass” value was 4 (Herbicidal rate of 70% or more and less than 90%). Besides, the “herbicidal effect rating, B: Japanese bulrush” value with Japanese bulrush [5] is 3 (Herbicidal rate of 40% or more and less than 70%). Besides, the “herbicidal effect rating, C: oval-leafed pondweed” value in the assay on oval-leafed pondweed [6] was 3 (Herbicidal rate of 40% or more and less than 70%). In addition, the “herbicidal effect on H: barnyard grass” value in the assay with barnyard grass [7] is on record as 5 (Herbicidal rate of 90% or more (almost completely withered)). In addition, in the assay with Chinese sprangletop, the “herbicidal effect on D: Chinese sprangletop” value is given as 5 (Herbicidal rate of 90% or more (almost completely withered)). Further, the “herbicidal effect on E: rice flat sedge” value with rice flat sedge was 5 (Herbicidal rate of 90% or more (almost completely withered)). For the same compound, the “herbicidal effect, F: southern crabgrass” value in the assay with southern crabgrass was 3 (Herbicidal rate of 40% or more and less than 70%). Besides, the “herbicidal effect, G: green foxtail” value with green foxtail was 1 (Herbicidal rate of 5% or more and less than 20%). The “herbicidal effect, H: barnyard grass” value in the assay on barnyard grass [8] was 1 (Herbicidal rate of 5% or more and less than 20%). Moreover, in the assay on wild oat, the “herbicidal effect, I: wild oat” value is reported as 0 (Herbicidal rate of 5% or less (almost no effect)). In addition, in the assay on blackgrass, the “herbicidal effect, J: blackgrass” value was 0 (Herbicidal rate of 5% or less (almost no effect)). The “herbicidal effect, K: Italian ryegrass” value with Italian ryegrass was 4 (Herbicidal rate of 70% or more and less than 90%). For the same compound, the “herbicidal effect, L: windgrass” value with windgrass is 3 (Herbicidal rate of 40% or more and less than 70%). The “herbicidal effect, M: velvetleaf” value in the assay on velvetleaf is 2 (Herbicidal rate of 20% or more and less than 40%). Moreover, in the assay on redroot pigweed, the “herbicidal effect, N: redroot pigweed” value is 4 (Herbicidal rate of 70% or more and less than 90%). Moreover, in the assay on lambsquarters, the “herbicidal effect, O: lambsquarters” value is 4 (Herbicidal rate of 70% or more and less than 90%). In addition, the “herbicidal effect, P: chickweed” value in the assay with chickweed was 3 (Herbicidal rate of 40% or more and less than 70%). For the same compound, the “herbicidal effect, R: persian speedwell” value in the assay with persian speedwell is 3 (Herbicidal rate of 40% or more and less than 70%).
